# Assay results reported in patent US20200046746A1, “ANTI-AGING COMPOSITIONS AND METHODS FOR USING SAME” (Prescient Pharma LLC, priority 2015, published 2020).
# Several values for one entry are separate records, joined by “and”; a condition that tells them apart may be missing. Equal values may be shown once.
# Columns and labels:
# [1] = system: normal human colon fibroblast cell line CCD 841 CoN (CRL-1790, ATCC); experiment: Senescence beta-galactosidase staining of aged normal human fibroblasts (Example 1); assay type: cell-based; details: lithium carbonate 0.15 μM and/or glycyrrhizic acid 0.25 mM; for effect on beta-galactosidase staining of the fibroblasts in comparison with non-treated controls or monotherapy / % green stained (average green area with and without background subtraction) / % green staining (green stained area of total original area) / visible positive beta-Galactosidase staining: 48 hours; for % green staining: per flask, 48 hours treatment, higher values = more aged cells; for % green stained (average green area with and without background subtraction) / % green staining (green stained area of total original area): per image, substance assigned through Table 3 (Area = Image #); for visible positive beta-Galactosidase staining: visual, light microscope 100× magnification
# Protocol: Aging-associated beta-galactosidase is widely used as a biomarker of senescence. Here we investigated senescence-associated-beta-galactosidase activity of human colon fibroblast cells by visual assessment.
# In this Example, the effect of treatment with lithium and glycyrrhizic acid separately, and as a fixed combination, was evaluated on normal human colon fibroblast cell line CCD 841 CoN (CRL-1790, ATCC).
# Group 4 (flasks 10-12, control), the medium was changed to fresh compete EMEM medium without drugs as controls.
# FIGS. 1-4 show pictures of the staining results for each of the groups, respectively.
# Digital pictures showing the staining results for each of the 12 flasks were then independently examined and scored for percentage of area of green (positive) staining based on pixels, with and without background subtraction.
# Higher values reflect more intensive green staining which corresponds to more aged cells.
# [2] = system: wild-type N2 Bristol strain of C. elegans; experiment: C. elegans longevity study (Example 4); assay type: in vivo; details: for longevity and survival (longevity effect): wild type C. elegans, lithium carbonate 0.15 or 15 μM
# Protocol: In this fourth Example, the effect of treatment with lithium and Glycyrrhizic acid separately, and as a fixed combination, was further evaluated on the wild-type N2 Bristol strain of C. elegans. Worm stocks were maintained on nematode growth medium (NGM) dishes containing 10 μg/mL cholesterol (Cat. No. C8667; Sigma-Aldrich, Saint Louis, Mo., USA). Dishes were seeded with OP50 Escherichia coli as a food source. Twelve polystyrene petri dishes (35 mm diameter) were prepared by filling with NGM agar containing […] cholesterol, and 25 μM 5-Fluoro-2′-deoxyuridine to suppress reproduction (FUDR; Cat. No. F0503; Sigma-Aldrich, Saint Louis, Mo., USA). The dishes were seeded with OP50 Escherichia coli as a food source. Duplicate dishes were used for each group. The treatment drug was dissolved in deionized water, and added to the dishes for the groups as explained below: […] Group #5: Glycyrrhizic acid in concentration of 0.25 mM. Group #6: untreated (control). NGM-agar treatment plates containing cholesterol (10 μg/mL) and 25 μM 5-Fluoro-2′-deoxyuridine (FUDR; Cat. No. F0503; Sigma-Aldrich, Saint Louis, Mo., USA) to suppress reproduction. […] The survival data for the various groups are also depicted in FIG. 17.
# [3] = lithium carbonate 0.15 μM, in the combination plus glycyrrhizic acid 0.25 mM
# [4] = lithium carbonate 15 μM, in the combination plus glycyrrhizic acid 0.25 mM
structure (smiles),measurement,setting,value
"CC1(C)[C@@H](O[C@@H]2O[C@@H](C(=O)O)[C@H](O)[C@@H](O)[C@@H]2O[C@H]2O[C@@H](C(=O)O)[C@H](O)[C@@H](O)[C@@H]2O)CC[C@]2(C)[C@@H]1CC[C@@]1(C)[C@H]2C(=O)C=C2[C@H]3C[C@@](C)(C(=O)O)CC[C@@]3(C)CC[C@@]21C [G acid, (3β,20β)-20-carboxy-11-oxo-30-norolean-12-en-3-yl 2-O-β-D-glucopyranuronosyl-α-D-glucopyranosiduronic acid]",effect on beta-galactosidase staining of the fibroblasts in comparison with non-treated controls or monotherapy,[1],did not appear to have significant effect
same,% green staining,[1],9.1% and 10.03% and 6.91%
same,% green stained (average green area with and without background subtraction),[1],6.908% and 9.104% and 10.03%
same,% green staining (green stained area of total original area),[1],6.91% and 9.1% and 10.03%
same,visible positive beta-Galactosidase staining,[1],stained positively
same,Age in days at % mortality 25%,[2]; glycyrrhizic acid 0.25 mM,14 days
same,Age in days at % mortality 50%,[2]; glycyrrhizic acid 0.25 mM,16 days
same,Age in days at % mortality 75%,[2]; glycyrrhizic acid 0.25 mM,18 days
same,Age in days at % mortality 90%,[2]; glycyrrhizic acid 0.25 mM,19 days
same,Age in days at % mortality 100%,[2]; glycyrrhizic acid 0.25 mM,20 days
same,Restricted mean Days,[2]; glycyrrhizic acid 0.25 mM,16.06 days
same,longevity and survival (longevity effect),[2]; glycyrrhizic acid 0.25 mM,not observed
"O=C([O-])[O-].[Li+].[Li+] [Li, lithium carbonate]",effect on beta-galactosidase staining of the fibroblasts in comparison with non-treated controls or monotherapy,[1],did not appear to have significant effect
same,% green staining,[1],6.25% and 2.83% and 5.24%
same,% green stained (average green area with and without background subtraction),[1],2.828% and 6.253% and 5.243%
same,% green staining (green stained area of total original area),[1],2.83% and 6.25% and 5.24%
same,visible positive beta-Galactosidase staining,[1],stained positively
same,Age in days at % mortality 100%,[2]; lithium carbonate 0.15 μM,19 days
same,Age in days at % mortality 25%,[2]; [3],13 days
same,Age in days at % mortality 50%,[2]; [3],15 days
same,Age in days at % mortality 75%,[2]; [3],16 days
same,Age in days at % mortality 90%,[2]; [3],18 days
same,Restricted mean Days,[2]; [3],14.88 days
same,Age in days at % mortality 100%,[2]; lithium carbonate 15 μM,19 days
same,Age in days at % mortality 25%,[2]; [4],14 days
same,Age in days at % mortality 50%,[2]; [4],15 days
same,Age in days at % mortality 75%,[2]; [4],16 days
same,Age in days at % mortality 90%,[2]; [4],18 days
same,Restricted mean Days,[2]; [4],14.56 days
same,longevity and survival (longevity effect),[2]; glycyrrhizic acid 0.25 mM,not observed
